Key:
rabbit platelets [1] = assay: PAF-induced platelet secretion ([3H]serotonin); assay type: cell-based; conditions: Oryctolagus cuniculus, washed [3H]serotonin-labeled rabbit platelets, antagonist 60 sec before PAF, sampled 60 sec after PAF
Experimental: (§1) Washed, [^3 H]serotonin-labeled rabbit platelets were prepared as previously described in COX, C. P., J. LINDEN and S. I. SAID: VIP elevates platelet cyclic AMP (cAMP) levels and inhibits in vitro platelet activation induced by platelet- activating factor (PAF). Peptides 5:25-28, 1984, and maintained in an atmosphere of 5% CO2 at 37° C. until used in the bioassay. Aliquots of platelets (2.5×10^8 /ml) were incubated with either an antagonist of PAF or the appropriate vehicle for 60 sec prior to the addition of PAF (0.2 nM to 0.2 mM). Aggregation was continuously monitored on a strip-chart recorder and recorded as the height of the tracing at 60 sec after the addition of PAF. Secretion of [^3 H]serotonin was measured in a sample of the platelet suspension removed at 60 sec after the addition of PAF. The percent inhibition of aggregation and secretion was calculated by comparing antagonist-treated platelets with the appropriate vehicle-treated control platelets. Each combination of antagonist and PAF was repeated 12-15 times, using several different platelet preparations. IC50 values were determined by inspection of the dose-response curves.

[2] = target: Human Platelet Membrane Receptors (PAF receptor) (Homo sapiens, UniProt P25105); conditions: for inhibition at 50 µM: read-out: Percent Inhibition of 3H-PAF binding at 50 μM
Experimental: INHIBITION OF ^3 H-PAF BINDING TO HUMAN PLATELET MEMBRANE RECEPTORS
Ten units of in-dated human packed platelets, each containing 45-65 ml platelet rich-plasma, were purchased from a commercial blood bank. Disposable plasticware was used throughout for receptor preparation. The units were pooled and a 1 ml aliquot was removed for determination of platelet concentration, using a Coulter Counter. The remaining platelet rich plasma was dispensed into 50 ml conical tubes and centrifuged at room temperature for 15 minutes at 3000 RPM (2300×g). Plasma was decanted and the platelets were resuspended in 35 ml of buffer (10 mM Trizma 7.0, 2 mM EDTA (dipotassium salt), and 150 mM KCl) and transferred to fresh tubes, which were centrifuged again as above. The platelets were washed 3 times, avoiding contaminating erythrocytes at the bottom of the pellets. Pellets were consolidated at each step, and by the last wash with EDTA/KCl buffer, most of the erythrocytes were in 1 tube. The pellets were resuspended in buffer containing 10 mM Trizma 7.0 with 10 mM CaCl2. Following centrifugation, the buffer was decanted and the pellets were resuspended in the CaCl2 buffer, avoiding erythrocyte contamination by recovering less than 100% of the platelet pellets. The resuspended platelets were dispensed in 8-10 ml aliquots into Corex tubes and disrupted by three cycles of freezing (dry ice/ethanol) and thawing (24° C.). The tubes were centrifuged at 40,000 × g for 20 minutes at 4° C. Supernatants were decanted and each pellet was resuspended in 5-7 ml 10 mM Trizma 7.0. All resuspended pellets were pooled and aliquots of about 1200 ml were dispensed into 1.5 ml microfuge tubes and frozen at -70° C. Protein content was determined by a fluorescamine protein assay.
Assay Methods: Receptor Characterization--Each receptor preparation was evaluated to determine the number of receptor populations, the number of PAF receptor equivalents/mg protein and the dissociation constant (KD) for PAF binding This required 2-3 experiments in which the protein concentration was held constant and the ^3 H-PAF ligand concentration was varied from approximately 0.10-2.5 nM and the data was analyzed by Scatchard methodology. Total incubation volume was 250 ml for these procedures and incubations were conducted at 24° C. for 30 minutes. For further experimentation, total incubation volumes are 500 ml. Protein and ligand concentrations were adjusted to give 0.075 nM receptor equivalents in the presence of 0.75 nM ^3 H-PAF. Each receptor preparation was then used to determine the dose - response displacement relationship of unlabeled PAF and the PAF antagonist, triazolam.
Assay Methods: Routine Assay of Compounds--The compounds were weighed precisely and solubilized in quantities of DMSO such that a 5 ml aliquot in the incubate would deliver the desired compound concentration. Compounds tested for the first time in this assay were evaluated at a concentration of 50 mM in the incubation medium. […] Triazolam was always included in each screening assay as a compound inhibition control. […] Nonspecific binding control solution was made by drying to completion about 26.2 ml unlabeled PAF under a stream of argon. PAF was resolubilized in 1000 ml DMSO. When delivered in a 5 ml aliquot, the final concentration of 1 mM PAF in the incubate exceeded by 1000-fold the concentration of ^3 H-PAF.
All buffers containing proteins were made at room temperature on the day of assay. Assay buffer was prepared by adding 125 mg human albumin to 25 ml of stock buffer (10 mM Trizma 7.4 with 20 mM CaCl2). Rinse buffer was made by adding 20 grams bovine serum albumin to 1000 ml stock buffer. About 80 ml of rinse buffer was decanted into a small pyrex dish and used to soak 65 Whatman GF/C 2.5 cm glass filters. The remaining rinse buffer was poured into a repipet and placed into an ice bath along with the filters.

rabbit platelets [3] = assay: PAF-induced platelet aggregation; assay type: cell-based; conditions: Oryctolagus cuniculus, washed rabbit platelets, antagonist 60 sec before PAF, tracing height 60 sec after PAF
Experimental: as §1

Chain of Human Platelet Membrane Receptors (PAF receptor) (P25105 whole entry): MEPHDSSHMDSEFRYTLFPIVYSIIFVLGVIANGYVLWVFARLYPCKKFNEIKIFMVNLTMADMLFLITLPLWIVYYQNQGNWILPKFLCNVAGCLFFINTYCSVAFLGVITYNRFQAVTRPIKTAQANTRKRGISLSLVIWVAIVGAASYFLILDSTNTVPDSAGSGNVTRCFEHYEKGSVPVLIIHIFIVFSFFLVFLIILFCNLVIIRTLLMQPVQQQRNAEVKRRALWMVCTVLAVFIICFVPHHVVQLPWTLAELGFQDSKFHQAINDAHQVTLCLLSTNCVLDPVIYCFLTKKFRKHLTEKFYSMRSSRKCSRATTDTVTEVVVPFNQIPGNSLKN

Row | SMILES | IC50 (rabbit platelets [1]) | IC50 [2] | IC50 (rabbit platelets [3]; 1 min) | inhibition at 50 µM [2] | IC50 (rabbit platelets [1]; 1 min) | IC50 (rabbit platelets [3]) | inhibition of 3H-PAF binding by triazolam control at standard concentration ([2]; standard concentration of 50 mM (so in the source), 0.75 nM 3H-PAF)
1 | COc1cc(Oc2ccc(C(=O)N(C(C)C)C3CCCCC3)cc2)cc(OC)c1OC [Example 1, N-cyclohexyl-N-(1-methylethyl)-4-(3,4,5-trimethoxyphenoxy)benzamide] | 8.9 nM | 133 nM | 10 to 100 nM |  |  |  | 
2 | COc1ccc(Oc2ccc(C(=O)N(C(C)C)C3CCCCC3)cc2)cc1 [Example 2, N-cyclohexyl-4-(4-methoxyphenoxy)-N-(1-methylethyl)benzamide] | 1120 nM | 22100 nM | 1000 to 10000 nM |  |  |  | 
3 | COc1cccc(Oc2ccc(C(=O)N(C(C)C)C3CCCCC3)cc2)c1 [Example 3, N-cyclohexyl-4-(3-methoxyphenoxy)-N-(1-methylethyl)benzamide] | 750 nM | 10500 nM | 1000 to 10000 nM |  |  |  | 
4 | COc1cc(Oc2ccc(C(=O)N(C3CCCCC3)C3CCCC3)cc2)cc(OC)c1OC [Example 4, N-cyclohexyl-N-cyclopentyl-4-(3,4,5-trimethoxyphenoxy)benzamide] | 9.36 nM | 508 nM | 1000 to 10000 nM |  |  |  | 
5 | COc1ccc(Oc2ccc(C(=O)N(C3CCCCC3)C3CCCC3)cc2)cc1OC [Example 5, N-cyclohexyl-N-cyclopentyl-4-(3,4-dimethoxyphenoxy)benzamide] | 4010 nM | 1500 nM | 1000 to 10000 nM |  |  |  | 
6 | COc1ccc(Oc2ccc(C(=O)N(C(C)C)C3CCCCC3)cc2)cc1OC [Example 6, N-cyclohexyl-4-(3,4-dimethoxyphenoxy)-N-(1-methylethyl)benzamide] | 85.9 nM | 2010 nM | 100 to 1000 nM |  |  |  | 
7 | COc1ccc(Oc2ccc(C(=O)N(C3CCCC3)C3CCCC3)cc2)cc1OC [Example 7, N,N-dicyclopentyl-4-(3,4-dimethoxyphenoxy)benzamide] | 422 nM | 914 nM | 1000 to 10000 nM |  |  |  | 
8 | COc1ccc(C(O)c2ccc(C(=O)N(C(C)C)C3CCCCC3)cc2)cc1OC (stereo not drawn) [Example 8, N-cyclohexyl-4-[(3,4-dimethoxyphenyl)hydroxymethyl]-N-(1-methylethyl)benzamide] | 2570 nM |  | 10000 to 100000 nM | 44% |  |  | 
9 | COc1ccc(C(O)c2ccc(C(=O)N(C3CCCCC3)C3CCCC3)cc2)cc1OC (stereo not drawn) [Example 9, N-cyclohexyl-N-cyclopentyl-4-[(3,4-dimethoxyphenyl)hydroxymethyl]benzamide] | 1490 nM |  | 1000 to 10000 nM | 61.9% |  |  | 
10 | COc1ccc(C(O)c2ccc(C(=O)N(C3CCCC3)C3CCCC3)cc2)cc1OC (stereo not drawn) [Example 10, N,N-dicyclopentyl-4-[(3,4-dimethoxyphenyl) hydroxymethyl]benzamide] |  |  |  | 47% | 1000 to 10000 nM | > 10000 nM | 
11 | COc1ccc(Cc2ccc(C(=O)N(C3CCCC3)C3CCCC3)cc2)cc1OC [Example 11, N,N-dicyclopentyl-4-[(3,4-dimethoxyphenyl)methyl]benzamide] | 114 nM | 1480 nM | 1000 to 10000 nM |  |  |  | 
12 | COc1cc(OC)cc(Oc2ccc(C(=O)N(C(C)C)C3CCCCC3)cc2)c1 [Example 12, N-cyclohexyl-4-(3,5-dimethoxyphenoxy)-N-(1-methylethyl)benzamide] | 142 nM | 2710 nM | 1000 to 10000 nM |  |  |  | 
13 | COc1cc(Oc2ccc(C(=O)N(C3CCCCC3)C3CCCC3)cc2C)cc(OC)c1OC [Example 13, N-cyclohexyl-N-cyclopentyl-3-methyl-4-(3,4,5-trimethoxyphenoxy)benzamide] | 89.4 nM | 600 nM |  |  |  | < 1000 nM | 
14 | COc1cc(C(O)c2ccc(C(=O)N(C(C)C)C3CCCCC3)cc2)cc(OC)c1OC (stereo not drawn) [Example 14, N-cyclohexyl-4-[hydroxy(3,4,5-trimethoxyphenyl)methyl]-N-(1-methylethyl)benzamide] | 1810 nM |  | 100 to 1000 nM | 49.2% |  |  | 
15 | COc1cc(Cc2ccc(C(=O)N(C(C)C)C3CCCCC3)cc2)cc(OC)c1OC [Example 15, N-cyclohexyl-N-(1-methylethyl)-4-[(3,4,5-trimethoxyphenyl)methyl]benzamide] | 26.6 nM | 425 nM | 100 to 1000 nM |  |  |  | 
16 | COc1cc(C(=O)c2ccc(C(=O)N(C(C)C)C3CCCCC3)cc2)cc(OC)c1OC [Example 16, N-cyclohexyl-N-(1-methylethyl)-4-(3,4,5-trimethoxybenzoyl)benzamide] | 103 nM |  | 100 to 1000 nM |  |  |  | 
17 | COc1cc(OC)c(OC)cc1Cc1ccc(C(=O)N(C2CCCCC2)C2CCCC2)cc1 [Example 17, N-cyclohexyl-N-cyclopentyl-4-[(2,4,5-trimethoxyphenyl)methyl]benzamide] | 632 nM | 3710 nM | 1000 to 10000 nM |  |  |  | 
18 | CC(C)N(C(=O)c1ccc(Oc2ccc3c(c2)OCO3)cc1)C1CCCCC1 [Example 18, N-cyclohexyl-4-(3,4-methylenedioxyphenoxy)-N-(1-methylethyl)benzamide] | 1990 nM | 8160 nM | 1000 to 10000 nM |  |  |  | 
19 | COc1cc(C(=O)N(C(C)C)C2CCCCC2)ccc1Oc1cc(OC)c(OC)c(OC)c1 [Example 19, N-cyclohexyl-3-methoxy-N-(1-methylethyl)-4-(3,4,5-trimethoxyphenoxy)benzamide] |  | 995 nM |  |  |  |  | 
20 | COc1ccc(OCc2ccc(C(=O)N(C(C)C)C3CCCCC3)cc2OC)c(OC)c1 [Example 20, N-cyclohexyl-4-[(2,4-dimethoxyphenoxy)methyl]-3-methoxy-N-(1-methylethyl)benzamide] |  |  |  | 41% |  |  | 
21 | COc1cccc(OCc2ccc(C(=O)N(C(C)C)C3CCCCC3)cc2OC)c1 [Example 21, N-cyclohexyl-3-methoxy-4-[(3-methoxyphenoxy)methyl]-N-(1-methylethyl)benzamide] |  | 11200 nM |  |  |  |  | 
22 | COc1cccc(OCc2ccc(C(=O)N(C)C3CCCCC3)cc2)c1 [Example 22, N-cyclohexyl-4-[(3-methoxyphenoxy)methyl]-N-methylbenzamide] | > 10000 nM | 53200 nM | 10000 to 100000 nM |  |  |  | 
23 | COc1cc(OCc2ccc(C(=O)N(C)C3CCCCC3)cc2)cc(OC)c1OC [Example 23, N-cyclohexyl-N-methyl-4-[(3,4,5-trimethoxyphenoxy)methyl]benzamide] |  | > 50000 nM | 10000 to 100000 nM |  | 10000 to 100000 nM |  | 
24 | Cc1nnc2n1-c1ccc(Cl)cc1C(c1ccccc1Cl)=NC2 [Triazolam, triazolam, reference compound] |  |  |  |  |  |  | approximately 50%
